Six compounds from ChEMBL document CHEMBL1154380, “Lipocarbazoles, secondary metabolites from Tsukamurella pseudospumae Acta 1857 with antioxidative activity” (J Nat Prod, 2009) can be followed below.

In general, IC50 refers to the concentration that inhibits the measured activity by half.

The test system of test [1] is Pseudomonas fluorescens. Put plainly: Antibacterial activity against Pseudomonas fluorescens DSM 50090 at 1 mg/ml after 24 hrs by disk diffusion assay. The format is functional, organism-based. Background: In agar diffusion tests the substance spreads into inoculated agar from a disc or well.
In test [2] the test system is Botrytis cinerea. As to the kind of experiment: Antifungal activity against Botrytis cinerea Tu 157 at 1 mg/ml after 48 hrs by disk diffusion assay. The format is functional, organism-based.
For test [3], the system named is Candida albicans. Put plainly: Antifungal activity against Candida albicans Tu 164 at 1 mg/ml after 48 hrs by disk diffusion assay. The format is functional, organism-based.
In test [4] the test system is Radical scavenging activity. Put plainly: Antioxidant activity assessed as DPPH radical scavenging activity after 30 mins. It is filed as functional. On the technique in general: DPPH is a stable violet radical that fades when it is reduced.
Test [5] concerns Staphylococcus aureus. Put plainly: Antibacterial activity against Staphylococcus aureus DSM 20231 at 1 mg/ml after 24 hrs by disk diffusion assay. The format is functional, organism-based.
For test [6], the system named is Escherichia coli. Put plainly: Antibacterial activity against Escherichia coli K-12 at 1 mg/ml after 24 hrs by disk diffusion assay. The format is functional, organism-based.
Test [7] concerns Brevibacillus brevis. As to the kind of experiment: Antibacterial activity against Brevibacillus brevis DSM 30 at 1 mg/ml after 24 hrs by disk diffusion assay. The format is functional, organism-based.
The test system of test [8] is Paenarthrobacter aurescens. As to the kind of experiment: Antibacterial activity against Arthrobacter aurescens DSM 20166 at 1 mg/ml after 24 hrs by disk diffusion assay. It is filed as functional, organism-based.
Test [9] has as its system Streptomyces viridochromogenes. Put plainly: Antibacterial activity against Streptomyces viridochromogenes Tu 57 at 1 mg/ml after 24 hrs by disk diffusion assay. It is filed as functional, organism-based.
In test [10] the test system is Bacillus subtilis. As to the kind of experiment: Antibacterial activity against Bacillus subtilis DSM 10 at 1 mg/ml after 24 hrs by disk diffusion assay. The format is functional, organism-based.
Test [11] has as its system Penicillium chrysogenum. Put plainly: Antifungal activity against Penicillium notatum Tu 136 at 1 mg/ml after 48 hrs by disk diffusion assay. It is filed as functional, organism-based.
For test [12], the system named is Saccharomyces cerevisiae. Put plainly: Antifungal activity against Saccharomyces cerevisiae ATCC 9080 at 1 mg/ml after 48 hrs by disk diffusion assay. It is filed as functional, organism-based.
The test system of test [13] is Proteus mirabilis. As to the kind of experiment: Antibacterial activity against Proteus mirabilis ATCC 35501 at 1 mg/ml after 24 hrs by disk diffusion assay. It is filed as functional, organism-based.

The source made the active and inactive calls. The calls are words filed in the database; no cut-off is given here.

For the compound `CCCCCCCC/C=C\CCCCCCCc1c(C)c(O)cc2c1[nH]c1ccccc12` [LIPOCARBAZOLE A3], the outcome in test [1], in test [2], in test [3], in test [5], in test [6] and in [7] was inactive. Also, the result in test [8], in test [9], in test [10], in test [11], in [12] and in [13] was inactive. In test [4], the IC50 stood at 8.7 µM.

Take `CCCCCCCCCCCCCCCCCc1c(C)c(O)cc2c1[nH]c1ccccc12`: the result in [1], in [2], in [3], in test [5], in test [6] and in test [7] was inactive. In addition, the outcome in [8], in test [9], in test [10], in test [11], in test [12] and in test [13] was inactive. In addition, the IC50 in test [4] came out at 10.5 µM.

With `O=C1O[C@H]([C@@H](O)CO)C(O)=C1O` [ASCORBIC ACID], the IC50 in [4] turned out to be 13.4 µM.

Regarding `CC/C=C\C/C=C\C/C=C\CCCCCCCc1c(C)c(O)cc2c1[nH]c1ccccc12`, the outcome in [1], in test [2], in [3], in [5], in test [6] and in test [7] was inactive. Moreover, the outcome in test [8], in test [9], in [10], in [11], in [12] and in [13] was inactive.

Consider `CCCOC(=O)c1cc(O)c(O)c(O)c1` [PROPYL GALLATE], for which the IC50 in test [4] was 4.4 µM.

On to `CCCCC/C=C\C/C=C\CCCCCCCc1c(C)c(O)cc2c1[nH]c1ccccc12`, for which the outcome in [1], in test [2], in test [3], in test [5], in [6] and in test [7] was inactive. Also, the result in test [8], in test [9], in [10], in test [11], in test [12] and in test [13] was inactive.
